Data published in BindingDB's records for doi:10.7270/Q2HD7T4S (Sanford-Burnham Center For Chemical Genomics, 2008).

target: E3 ubiquitin-protein ligase XIAP (Homo sapiens, UniProt P98170); experiment: small molecules displacing peptide from XIAP – biochemical, IAP family, fluorescence polarization (AID 1018)
Sequence (P98170 whole entry): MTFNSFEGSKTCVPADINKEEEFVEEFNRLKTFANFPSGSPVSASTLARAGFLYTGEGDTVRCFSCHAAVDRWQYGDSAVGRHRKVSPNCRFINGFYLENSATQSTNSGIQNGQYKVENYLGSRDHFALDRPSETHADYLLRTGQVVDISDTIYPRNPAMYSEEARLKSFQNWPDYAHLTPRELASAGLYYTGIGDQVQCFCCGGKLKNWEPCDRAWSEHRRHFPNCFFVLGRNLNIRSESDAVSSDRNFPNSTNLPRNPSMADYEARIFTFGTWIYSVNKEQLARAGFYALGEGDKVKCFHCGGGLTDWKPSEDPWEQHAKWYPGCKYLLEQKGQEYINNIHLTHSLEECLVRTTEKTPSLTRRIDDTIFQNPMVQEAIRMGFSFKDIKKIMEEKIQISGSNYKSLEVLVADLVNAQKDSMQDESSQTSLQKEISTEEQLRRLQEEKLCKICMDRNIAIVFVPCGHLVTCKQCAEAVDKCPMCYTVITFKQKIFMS

Row | IC50 [µM] | Structure (SMILES)
1 | > 100 | COc1cccc(C(=O)CC=Nc2cc(C)ccc2O)c1 [MLS000088060]
2 | > 100 | COc1ccc(CN=Nc2nc(N3CCCC3)nc(N3CCCC3)n2)cc1 [MLS000704198]
3 | > 100 | Cc1cccc(N(CC(N)=O)c2sc(=O)n(-c3ccccc3)c2O)c1 [SMR000009552]

The remaining lines, values behind:

Row | Structure (SMILES) | IC50 [µM]
4 | Cc1cc(=O)[nH]c(N=NC(CC(C)C)CC(C)C)n1 | > 100
5 | COc1cc(CN=Nc2cc(C)nc(NS(=O)(=O)c3ccc(C)cc3)n2)ccc1O | > 100
6 | CCOc1ccccc1NC(=O)C1C(C)=NC(=S)NC1c1cccs1 (stereo not given) [N-(2-ethoxyphenyl)-6-methyl-2-sulfanylidene-4-thiophen-2-yl-3,4-dihydro-1H-pyrimidine-5-carboxamide] | > 100
7 | O=C(O)c1cccc(-n2c(O)c3c(c2O)CC(Cl)=CC3)c1 [3-[5-chloranyl-1,3-bis(oxidanylidene)-3a,4,7,7a-tetrahydroisoindol-2-yl]benzoic acid] | > 100
8 | COc1cc(CN=Nc2nc(Nc3ccc(C)cc3)nc(-n3nc(C)cc3C)n2)cc(OC)c1OC | > 100
9 | O=C(CC=Nc1ccc(Nc2ccccc2)cc1)c1cccs1 [(E)-3-(4-anilinoanilino)-1-thiophen-2-yl-2-propen-1-one] | > 100
10 | COc1ccc(C(=O)C2C(=O)C(=O)N(CC3CCCO3)C2c2cccc(OC)c2)cc1 (stereo not given) [(4Z)-4-[hydroxy-(4-methoxyphenyl)methylene]-5-(3-methoxyphenyl)-1-(tetrahydrofurfuryl)pyrrolidine-2,3-quinone] | > 100
